Literature values, collected in patent publication EP0136475A2, “Novel growth hormone-releasing peptides and method of treating mammals therewith” (The Administrators of The Tulane University Educational Fund, priority 1983, dated 1985).
No end group written: not given here.

Tested on: rat anterior pituitary

Substance	intrinsic biological activity (reported by Spiess et al.)	growth hormone(GH)-releasing activity (rat anterior pituitary in vitro and in vivo)
hp GRF(1-29)-NH2: a synthetic amidated fragment of the natural hp GRF (YADAIFTNSYRKVLGQLSARKLLQDIMSR-NH2; UniProt P01286 32-60, looked up, fragment)	full intrinsic biological activity	–
hpGRF: growth hormone-releasing factors (GRF) of human pancreatic islet tumor origin (YADAIFTNSYRKVLGQLSARKLLQDIMSRQQGESNQERGARARL-NH2; ends and bridges not checked; UniProt P01286 32-75, looked up)	–	possess growth hormone(GH)-releasing activity
